Results: patent US7192746B2, “α-Isomaltosyltransferase, process for producing the same and use thereof” (Kabushiki Kaisha Hayashibara Seibutsu Kagaku Kenkyujo, priority 2000, dated 2007)

Key:
Type in all cases: biochemical
[1] = tested on: α-isomaltosyl-transferring enzyme from Bacillus globisporus N75; assay: Specificity to transferring acceptor; conditions: panose as saccharide donor, 10 units/g substrate, 3.2% (w/v), 30° C., pH 6.0, 24 hours
Procedure, shortened: (§1)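 Scoring is presence or absence of a transfer product, detected by HPLC for tri- or larger saccharides and by GLC for smaller ones. Reactions: 3.2% (w/v) saccharide with panose as donor in equal amount, 10 units/g substrate of purified or partially purified enzyme, pH 6.0, 30 °C, 24 h.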

[2] = tested on: α-isomaltosyl-transferring enzyme from Bacillus globisporus C9; assay: Specificity to transferring acceptor; conditions: panose as saccharide donor, 10 units/g substrate, 3.2% (w/v), 30° C., pH 6.0, 24 hours
Procedure, shortened: as §1

[3] = tested on: α-isomaltosyl-transferring enzyme from Arthrobacter ramosus S1; assay: Specificity to transferring acceptor; conditions: panose as saccharide donor, 10 units/g substrate, 3.2% (w/v), 30° C., pH 6.0, 24 hours
Procedure, shortened: as §1

[4] = tested on: α-isomaltosyl-transferring enzyme from Bacillus globisporus C11; assay: Specificity to transferring acceptor; conditions: panose as saccharide donor, 10 units/g substrate, 3.2% (w/v), 30° C., pH 6.0, 24 hours
Procedure, shortened: as §1

[5] = tested on: α-isomaltosyl-transferring enzyme from Arthrobacter globiformis A19; assay: Specificity to transferring acceptor; conditions: partially purified enzyme, panose as saccharide donor, 10 units/g substrate, 3.2% (w/v), 30° C., pH 6.0, 24 hours
Procedure, shortened: as §1

[6] = tested on: α-isomaltosyl-transferring enzyme from Bacillus globisporus N75; assay: Action on saccharides (substrates, TLC); set-up: key: −: there was found no substrate change before and after the enzymatic reaction; +: there were found both the reduction of substrate and the formation of cyclotetrasaccharide after the enzymatic reaction; conditions: 2 units/g substrate, 2% (w/v) substrate, 30° C., pH 6.0, 24 hours
Source text: (§2) To examine the saccharides in the supernatant, they were separated from the supernatant by silica gel thin-layer chromatography (abbreviated as “TLC” hereinafter) using, as a developer, a mixture solution of n-butanol, pyridine, and water (=6:4:1), and, as a thin-layer plate, “[…] 60”, an aluminum plate (20×20 cm) for TLC commercialized by […]. The coloration of both the separated total sugars by the sulfuric acid-methanol method and the reducing saccharides by the diphenylamine-aniline method detected a non-reducing saccharide at a position with an Rf value of about 0.31, which was positive on the former detection method but negative on the latter detection method.
(§3) It was tested whether saccharides can be used as substrates for the α-isomaltosyl-transferring enzyme. For the purpose, a solution of maltose, maltotriose, maltotetraose, maltopentaose, maltohexaose, maltoheptaose, isomaltose, isomaltotriose, panose, isomaltosylmaltose, isopanose, α,α-trehalose, kojibiose, nigerose, α,β-trehalose, cellobiose, gentibiose, maltitol, maltotriitol, lactose, sucrose, α-cyclodextrin, β-cyclodextrin, γ-cyclodextrin, soluble starch, pullulan, or dextran was prepared. To each of the above solutions was added two units/g substrate of a purified specimen of either α-isomaltosyl-transferring enzyme from Bacillus globisporus C9 obtained by the method in Experiment 4, Bacillus globisporus C11 obtained by the method in Experiment 7, Bacillus globisporus N75 obtained by the method in Experiment 11, or Arthrobacter ramosus S1 obtained by the method in Experiment 15, or a partially purified α-isomaltosyl-transferring enzyme from Arthrobacter globiformis A19 obtained by the method in Experiment 15. The resulting each solution was adjusted to give a substrate concentration of 2% (w/v) and incubated at 30° C. and pH 6.0 for 24 hours. The enzyme solutions before and after the enzymatic reactions were respectively analyzed on TLC as disclosed in Experiment 1 to confirm whether the enzymes acted on these substrates.

[7] = tested on: α-isomaltosyl-transferring enzyme from Bacillus globisporus C9; assay: Action on saccharides (substrates, TLC); set-up: key: −: there was found no substrate change before and after the enzymatic reaction; +: there were found both the reduction of substrate and the formation of cyclotetrasaccharide after the enzymatic reaction; conditions: 2 units/g substrate, 2% (w/v) substrate, 30° C., pH 6.0, 24 hours
Source text: as §2, §3

[8] = tested on: α-isomaltosyl-transferring enzyme from Arthrobacter ramosus S1; assay: Action on saccharides (substrates, TLC); set-up: key: −: there was found no substrate change before and after the enzymatic reaction; +: there were found both the reduction of substrate and the formation of cyclotetrasaccharide after the enzymatic reaction; conditions: 2 units/g substrate, 2% (w/v) substrate, 30° C., pH 6.0, 24 hours
Source text: as §2, §3

[9] = tested on: α-isomaltosyl-transferring enzyme from Bacillus globisporus C11; assay: Action on saccharides (substrates, TLC); set-up: key: −: there was found no substrate change before and after the enzymatic reaction; +: there were found both the reduction of substrate and the formation of cyclotetrasaccharide after the enzymatic reaction; conditions: 2 units/g substrate, 2% (w/v) substrate, 30° C., pH 6.0, 24 hours
Source text: as §2, §3

[10] = tested on: α-isomaltosyl-transferring enzyme from Arthrobacter globiformis A19; assay: Action on saccharides (substrates, TLC); set-up: key: −: there was found no substrate change before and after the enzymatic reaction; +: there were found both the reduction of substrate and the formation of cyclotetrasaccharide after the enzymatic reaction; conditions: partially purified enzyme, 2 units/g substrate, 2% (w/v) substrate, 30° C., pH 6.0, 24 hours
Source text: as §2, §3

Row | Enzymatic action for forming cyclotetrasaccharide, Enzyme of Strain N75 [6] | Enzymatic action for forming cyclotetrasaccharide, Enzyme of Strain C9 [7] | Enzymatic action for forming cyclotetrasaccharide, Enzyme of Strain S1 [8] | Enzymatic action for forming cyclotetrasaccharide, Enzyme of Strain C11 [9] | Enzymatic action for forming cyclotetrasaccharide, Enzyme of Strain A19 [10] | SMILES | Product of transferring reaction, Enzyme of Strain N75 [1] | Product of transferring reaction, Enzyme of Strain C9 [2] | Product of transferring reaction, Enzyme of Strain S1 [3] | Product of transferring reaction, Enzyme of Strain C11 [4] | Product of transferring reaction, Enzyme of Stain A19 [5]
1 | − | − | − | − | − | OC[C@H]1O[C@H](O[C@H]2[C@H](O)[C@@H](O)[C@H](O)O[C@@H]2CO)[C@H](O)[C@@H](O)[C@@H]1O [Maltose, maltose] | + (a saccharide-transferred product was formed in an amount of over one percent but below 10% to the total sugars) | + (a saccharide-transferred product was formed in an amount of over one percent but below 10% to the total sugars) | + (a saccharide-transferred product was formed in an amount of over one percent but below 10% to the total sugars) | + (a saccharide-transferred product was formed in an amount of over one percent but below 10% to the total sugars) | + (a saccharide-transferred product was formed in an amount of over one percent but below 10% to the total sugars)
2 | − | − | − | − | − | OC[C@H]1O[C@H](O[C@H]2[C@H](O)[C@@H](O)[C@@H](O[C@H]3[C@H](O)[C@@H](O)[C@@H](O[C@H]4[C@H](O)[C@@H](O)C(O)O[C@@H]4CO)O[C@@H]3CO)O[C@@H]2CO)[C@H](O)[C@@H](O)[C@@H]1O (some centres unmarked) [Maltotetraose, maltotetraose] | + (a saccharide-transferred product was formed in an amount of over one percent but below 10% to the total sugars) | + (a saccharide-transferred product was formed in an amount of over one percent but below 10% to the total sugars) | + (a saccharide-transferred product was formed in an amount of over one percent but below 10% to the total sugars) | + (a saccharide-transferred product was formed in an amount of over one percent but below 10% to the total sugars) | + (a saccharide-transferred product was formed in an amount of over one percent but below 10% to the total sugars)

The next lines start with the compound.

Row | SMILES | Enzymatic action for forming cyclotetrasaccharide, Enzyme of Strain N75 [6] | Enzymatic action for forming cyclotetrasaccharide, Enzyme of Strain C9 [7] | Enzymatic action for forming cyclotetrasaccharide, Enzyme of Strain S1 [8] | Enzymatic action for forming cyclotetrasaccharide, Enzyme of Strain C11 [9] | Enzymatic action for forming cyclotetrasaccharide, Enzyme of Strain A19 [10] | Product of transferring reaction, Enzyme of Strain N75 [1] | Product of transferring reaction, Enzyme of Strain C9 [2] | Product of transferring reaction, Enzyme of Strain S1 [3] | Product of transferring reaction, Enzyme of Strain C11 [4] | Product of transferring reaction, Enzyme of Stain A19 [5]
3 | OC[C@H]1O[C@@H](O[C@H]2[C@H](O)[C@@H](O)C(O)O[C@@H]2CO)[C@H](O)[C@@H](O)[C@H]1O (some centres unmarked) [Lactose, lactose] | − | − | − | − | − | + (a saccharide-transferred product was formed in an amount of over one percent but below 10% to the total sugars) | + (a saccharide-transferred product was formed in an amount of over one percent but below 10% to the total sugars) | + (a saccharide-transferred product was formed in an amount of over one percent but below 10% to the total sugars) | + (a saccharide-transferred product was formed in an amount of over one percent but below 10% to the total sugars) | + (a saccharide-transferred product was formed in an amount of over one percent but below 10% to the total sugars)
4 | OC[C@@H](O)[C@@H](O[C@H]1O[C@H](CO)[C@@H](O[C@H]2O[C@H](CO)[C@@H](O)[C@H](O)[C@H]2O)[C@H](O)[C@H]1O)[C@H](O)[C@@H](O)CO [Maltotriitol, maltotriitol] | − | − | − | − | − | + (a saccharide-transferred product was formed in an amount of over one percent but below 10% to the total sugars) | + (a saccharide-transferred product was formed in an amount of over one percent but below 10% to the total sugars) | + (a saccharide-transferred product was formed in an amount of over one percent but below 10% to the total sugars) | + (a saccharide-transferred product was formed in an amount of over one percent but below 10% to the total sugars) | + (a saccharide-transferred product was formed in an amount of over one percent but below 10% to the total sugars)
5 | OC[C@H]1O[C@H](O[C@H]2[C@H](O)[C@@H](CO)OC(O)[C@@H]2O)[C@H](O)[C@@H](O)[C@@H]1O (some centres unmarked) [Nigerose, nigerose] | − | − | − | − | − | + (a saccharide-transferred product was formed in an amount of over one percent but below 10% to the total sugars) | + (a saccharide-transferred product was formed in an amount of over one percent but below 10% to the total sugars) | + (a saccharide-transferred product was formed in an amount of over one percent but below 10% to the total sugars) | + (a saccharide-transferred product was formed in an amount of over one percent but below 10% to the total sugars) | + (a saccharide-transferred product was formed in an amount of over one percent but below 10% to the total sugars)
